# Tested on: Notch signaling (human Notch1 receptor, hNotch1ΔE, CSL luciferase reporter in HeLa cells)
# Assay: Notch reporter assay (dual luciferase, HeLa cells transfected with hNotch1ΔE)
# Format: cell-based
# Settings: compounds and controls at 10 μM
# Description: The activation level of Notch signaling can be quantified in vitro reliably by measuring the expression levels of Notch specific target genes. This can be accomplished by the quantification of corresponding mRNA or protein of a particular Notch target gene. Alternatively, cells can be genetically modified to carry a luciferase gene as an artificial Notch target gene, which is expressed in dependence of Notch activity. In this setting, Notch signaling levels can be quantified by measuring the luciferase-derived bioluminescence values.
# An according Notch-reporter assay, i.e. a luciferase-based luminescence readout, was used here to quantify the ability of the claimed compounds to augment Notch signaling in a cellular system. […] After 24 hours of transfection, the transfected cells were carefully detached from the dish using 0.5 mM EDTA in PBS and seeded into 96-well plates suitable for luminescence readouts (CORNING, #3610) at 10′000 cells per well. […] Directly after the lysis, first the Firefly and then the Renilla luciferase values were measured consecutively from the same well with a luminescence reader immediately after applying 15 μL per well each of the corresponding enzyme substrates needed to create the luminescence signals (Promega, Dual-Luciferase® Reporter Assay System, #E1910). […]
structure (smiles),measurement,value
"Oc1ccc(C=Cc2cc(O)cc(O)c2)cc1 [RES, Resveratrol]","Activity Range: weighted arithmetic mean (AVEw) of double-normalized Notch-reporter luminescence, relative to DMSO basis level of 1.0",1.9 ± 0.5

# From patent US20220354949A1, “NOVEL COMPOUNDS” (XENIOPRO GmbH, priority 2018, published 2022)
